The term melting point denotes the temperature of the solid-liquid transition.

`Cn1nc(C(F)(F)F)cc1Oc1nc(Oc2cc(C(F)(F)F)nn2C)c(F)c(Oc2cc(C(F)(F)F)nn2C)c1F` returned a melting point of 119 °C. `COC(=O)C(=O)C(CCCc1ccccc1)CS(=O)(=O)c1ccc(OC)cc1` (stereo not given) registered a melting point of 95 °C. Take `COc1ccc2[nH]cc(C3=C(c4c[nH]c5ccc(OC)cc45)C(=O)N(C)C3=O)c2c1`: the melting point is more than 290 °C.

The compound `COc1cc(Cl)ccc1CBr` yielded a melting point of 42 to 45 °C. The same measure for `CC(C)(C)OC(=O)N1CCc2cc(-c3ccc(Cl)cc3)ccc2C1`: 88.5 to 90.5 °C.

As for `CC(C)(C)OC(=O)N1CCC(CC(O)c2c3c(nn2-c2ccccc2)c(=O)[nH]c2ccccc23)CC1` (stereo not given), the melting point is 253 to 254 °C.

Compound `CCc1cc(=O)n(C)c2c1C(=O)CCC2` came in with a melting point of 65 to 70 °C.

Compound `CSCC(O)COc1cccc2oc(C(=O)O)cc(=O)c12` (stereo not given) returned a melting point of 76 to 79 °C.

Compound `COc1cc2c(cc1OC)CN(CCCc1cccc(NC(=O)c3cccc4c(=O)c5cccc(OC)c5[nH]c34)c1)CC2` yielded a melting point of 138 to 140 °C. Then `CC(=CC#N)c1cccc2cc[nH]c12`, with 88 to 90 °C. `O=C(N[C@H]1CCc2ccc(O)cc2C1)[C@H](O)c1ccc(OCc2ccccc2)cc1`: the melting point lay in the range of 137 to 139 °C. As to `CCOC(=O)c1cnc(N(CC)Cc2ccc3nc(C)[nH]c(=O)c3c2)s1`, the melting point lay within 188 to 192 °C. Then `CC(C)(C)c1ccc(/C=N/OCCCOc2ccc(CCC(=O)O)cc2)cc1`, with 101 to 102 °C. Turning to `CCCOc1cccc(-c2nn(C(C)c3oc4ccccc4c(=O)c3-c3cccc(F)c3)c3ncnc(N)c23)c1` (stereo not given), the melting point lay in the range of 178 to 182 °C.

Regarding `NC1=NN(c2ccccn2)CC1`, the melting point lay in the range of 168 to 170 °C.

Compound `COc1ccc2c(C(=O)C(F)(F)F)c[nH]c2c1` yielded a melting point of 206 to 208 °C.

In turn, `COc1ccc(C2=CCN(Cc3n[nH]c4c(Cl)cccc34)CC2)cc1` displayed a melting point of 201 to 203 °C. Compound `COC(=O)C(F)(F)C1(C(F)(F)C(=O)OC)OCCO1` gave a melting point of 66.5 to 67.5 °C. Turning to `Cc1ccc(N2CCCCC2)c(NC(=O)c2ccncc2)c1`, the melting point was in the range of 142 to 144 °C. In turn, `O=C(O)c1cccc(C(=O)NC(Cc2c[nH]c3ccccc23)C(=O)CCc2cc(C(F)(F)F)cc(C(F)(F)F)c2)c1` (stereo not given) showed a melting point of 113 to 116 °C. With `CCOC(=O)c1c(CN(CC)CC)nc2sc3c(c2c1-c1ccc(OC)c(OC)c1)CCN(S(C)(=O)=O)C3`, the melting point lay in the range of 147 to 148 °C. On to `COc1ccc(/C=C/S(=O)(=O)N(C)c2ccccc2)cc1`, for which the melting point fell in the range of 126 to 129 °C.

Turning to `Cc1ccc(S(=O)(=O)c2nc(C(N)=O)n[nH]2)cc1`, the melting point lay in the range of 148 to 150 °C.

In turn, `CC1CN(c2nc(Cl)nc(C(C)O)n2)CC(C)N1` (stereo not given) had a melting point of 126 to 128 °C.

For `c1ccc(Nc2nnn[nH]2)cc1`, the melting point was 208 to 209 °C. Take `CC1Cc2cc3c(cc2C(c2ccc([N+](=O)[O-])cc2)=NN1C1=NC(=O)CS1)OCO3` (stereo not given): the melting point lay within 218 to 220 °C.

Consider `CC(C)=CCC/C(C)=C/CSc1nc2cc(Cl)ccc2[nH]1`, for which the melting point is 102 to 104 °C.

`Cn1ncc(/C=C/C(=O)Nc2ccc(CCc3cscn3)cc2)c1-c1ccc(F)cc1`: the melting point was 211 to 212 °C. In the case of `CN1C(=O)C=C(c2ccc3c(c2)CCCC3)C1=O`, the melting point was 104 to 107 °C. As to `Cc1cc(O)ccc1NC(=O)OC(C)(C)C`, the melting point is 143 to 144 °C. Turning to `O=c1c2cccnc2n(-c2cccc(Cl)c2)c2cc[nH]c12`, the melting point fell in the range of 300 to 301 °C. `O=Cc1ccc(OS(=O)(=O)C(F)(F)F)c2ccccc12` returned a melting point of 44 to 47 °C.

On to `O=C1CCCC2=C1C(c1ccccc1)C1=C(CCCC1)N2` (stereo not given), for which the melting point is 252 to 254 °C. Turning to `C=CCCOc1ccc(CCCOC(=O)NS(=O)(=O)NCCOC(C)C)c(Oc2ncc(C(F)(F)F)cc2Cl)c1`, the melting point lay in the range of 111 to 113 °C.

In turn, `CSc1nc(-c2ccc(O)cc2)n(C)n1` came in with a melting point of 216 to 220 °C. In turn, `O=C(Nc1ccc(Cl)nc1)c1ccccc1` gave a melting point of 118 to 120 °C. The compound `COC(=O)CC[C@H](NC(=O)c1ccc(C#Cn2cnc3nc(NC(=O)C(C)(C)C)cc-3c2O)cc1)C(=O)OC` yielded a melting point of 280 to 285 °C. The same measure for `COc1ccc(N2CCOCC2)c2sc(C#N)nc12`: 145 to 147 °C; for `CCOC(=O)C(=NOC)C1=CSCCN1C=O`: 94 to 96 °C; for `CCc1ccc(CCc2ccc(-c3ccc(OC(F)(F)F)cc3)cc2)cc1`: 97 °C. `O=C(Cn1c(Cl)ccc1Cl)N=C1NCCN1` showed a melting point of 225 °C. The same measure for `COCCN1CCc2cc(Nc3ncc(Cl)c(Nc4cc(C(N)=O)ccc4OC)n3)c(OC)cc2CC1`: 218 to 225 °C; for `CCCC(=O)Nc1n[nH]c2cc(Cl)c(Br)cc12`: 250 °C; for `O=Cc1ccc2c(c1)C13CC2c2ccccc2C1CN(CC1CCCC1)C3` (stereo not given): 170 to 175 °C. Compound `O=C1CCC(N2CCC(n3c(=O)[nH]c4ccccc43)CC2)CC1` came in with a melting point of 221 to 223 °C.

In turn, `O=C1c2ccccc2N(N2CCOCC2)C2=NCCN12` registered a melting point of 250 to 251 °C. On to `CC1(C)COC(=O)N1c1nc(-c2cccc([N+](=O)[O-])c2)cs1`, for which the melting point is more than 210 °C. As for `NC1=CC=C2C=c3c(cnn3-c3ccccc3)=C2C1=O`, the melting point is 200 to 202 °C. Compound `Cc1cc(C)cc(N(CCCC(N)=O)Cc2ccc3nc(NCCCN4CCOCC4)n(Cc4cccc(Br)n4)c3c2)c1` came in with a melting point of 82 °C.

`Cc1nc2c(OCc3c(Cl)ccc(S(=O)(=O)N4CCC[C@H]4C(=O)NCc4ccc(C=NN)cc4)c3Cl)cccn2c1Br` had a melting point of 124 °C. As to `CCN(CC)CCNC(=O)N1CCC(S(=O)c2ccc(Cl)cc2)C1` (stereo not given), the melting point was in the range of 128 to 130 °C. The compound `CC1=NN(C)C(=O)C1(Cl)C(=O)c1ccccc1` (stereo not given) had a melting point of 70.5 to 72 °C. For `CC1=C(C(=O)OC(C)C)C(c2cccc(Cl)c2Cl)N(C(=O)OC(C)C)C(=O)N1` (stereo not given), the melting point was in the range of 158 to 160 °C.

Consider `CC(=O)Nc1cc(-c2sc(-c3ccc(S(C)(=O)=O)cc3)nc2-c2cccc(Cl)c2)ccn1`, for which the melting point was in the range of 216 to 217 °C. In turn, `O=C(O)c1ccccc1C(=O)NNC(=S)Nc1ccccc1` registered a melting point of 149 to 151 °C. Compound `O=[N+]([O-])c1cc(CBr)cc(CBr)c1` had a melting point of 100 to 101 °C. On to `CN(C)Cc1c[nH]c2ncccc12`, for which the melting point was 161 to 162 °C. The compound `CCN(CC)C(=O)c1ccccc1C1CC1c1ccccc1` (stereo not given) showed a melting point of 52 to 53 °C. The compound `CCOC(=O)CC(=O)c1cc(C(CC(C)C)NC(=O)Cc2ccc(NC(=O)Nc3ccccc3Cl)cc2)no1` (stereo not given) had a melting point of 150 to 152 °C. The same measure for `COc1cccc(C(NC(=O)Cc2c(Cl)cncc2Cl)C2CCCC2)c1` (stereo not given): 105 to 106 °C; for `C=CCSc1ccc(Oc2ccccc2)nn1`: 71 to 73 °C; for `CN1CCC(c2c[nH]c3ccc(OS(=O)(=O)c4ccccc4)cc23)CC1`: 192 to 194 °C.

For `O=C(O)C1CCOc2ccc(F)cc21` (stereo not given), the melting point lay within 111 to 115 °C. Compound `CC(=O)OCCN(C(=O)CBr)c1ccc(Cl)cc1C(=O)c1ccccc1F` had a melting point of 84 to 88 °C. Then `O=c1cccccc1N1CCN(c2cccccc2=O)CC1`, with 184 to 186 °C.

The record behind these values is a melting point compilation (Tetko et al.; mined from patent text by program, amines drawn as free bases though some values may be those of a salt).
